10 molecules from ChEMBL document CHEMBL1201862, “PubChem BioAssay data set” (2004) can be followed below.

Common to all, as to assay: NCI tumour cell line growth inhibition, 48 h
Experiment [1] deals with SK-OV-3.
Experiment [2] concerns ACHN.
The subject of experiment [3] is SW-620.
In experiment [4] the test system is HCT-116.
Experiment [5] deals with Malme-3M.
The test system of experiment [6] is OVCAR-8.
Experiment [7] relates to RPMI-8226.
The subject of experiment [8] is HOP-92.
The subject of experiment [9] is LOX IMVI.
Experiment [10] has as its system NCI-H23.
The test system of experiment [11] is TK-10.
Experiment [12] concerns HT-29.
The subject of experiment [13] is SK-MEL-28.
Experiment [14] concerns IGROV-1.
The subject of experiment [15] is HOP-62.
In experiment [16] the test system is T47D.
Experiment [17] deals with UACC-62.
Experiment [18] concerns SK-MEL-5.
In experiment [19] the test system is K562.
Experiment [20] relates to A549.

Molecules are shown by their SMILES.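 1) Cells in 96-well plates. 2) Compound, 48 h, 5 concentrations. 3) Linear interpolation between surrounding doses. 4) Unreached endpoint = highest concentration. GI50 is the concentration that inhibits growth by half.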 Calls of active or inactive are those of the source. Rule as the data show it: active = GI50 up to about 1.1 µM and inactive = higher. Bounds are passed on as bounds.

Regarding `CCCCCC1=C/C(=C\c2[nH]c(-c3ccc[nH]3)cc2OC)N=C1C`, the GI50 is 0.25 µM (active) in experiment [1]; < 0.01 µM (active) in [2]; < 0.01 µM (active) in [3]; < 0.01 µM (active) in experiment [4]; 0.0448 µM (active) in experiment [5]; < 0.01 µM (active) in [6]. Besides, the GI50 is < 0.01 µM (active) in experiment [7]; < 0.01 µM (active) in experiment [8]; < 0.01 µM (active) in experiment [9]; 0.0128 µM (active) in experiment [10]; 0.0329 µM (active) in [11]; < 0.01 µM (active) in experiment [12]. Moreover, the GI50 in experiment [13] was 0.0215 µM (active); in experiment [14], 0.017 µM (active); in experiment [15], 0.0111 µM (active); in experiment [16], 0.0189 µM (active); in experiment [17], < 0.01 µM (active); in experiment [18], 0.0316 µM (active). For the same molecule, the GI50 was < 0.01 µM (active) in [19] and 0.0167 µM (active) in experiment [20].

For `C[C@H]1C(=O)C2=C[C@H]1CCC(=O)[C@]1(C)CCCC(C)(C)[C@H]1C[C@H]2O`, the GI50 in [1] was 39.6 µM (inactive); in experiment [2], 17.3 µM (inactive); in [3], 14.9 µM (inactive); in experiment [4] it was 31.7 µM (inactive); in experiment [5], 20.6 µM (inactive); in [6], 17.5 µM (inactive). The GI50 in experiment [7] is 12.5 µM (inactive); in experiment [8], 24.3 µM (inactive); in [9], 17.3 µM (inactive); in experiment [10], 21.8 µM (inactive); in experiment [11], 15.3 µM (inactive); in experiment [12], 13.9 µM (inactive). In addition, the GI50 in experiment [13] is 40.1 µM (inactive); in experiment [14] it was 37.9 µM (inactive); in experiment [15], 97.5 µM (inactive); in experiment [16], 17.6 µM (inactive); in experiment [17] it was 36.5 µM (inactive); in experiment [19], 12.4 µM (inactive). In addition, the GI50 in experiment [20] is 19 µM (inactive).

With `O=c1[nH]c(-c2ccccc2)nc2c1sc1nc3ccccc3n12`, the GI50 in experiment [1] is > 100 µM (inactive); in experiment [2], 61.4 µM (inactive); in experiment [3] it was > 100 µM (inactive); in [4] it was > 100 µM (inactive); in experiment [5], > 100 µM (inactive); in [6] it was > 100 µM (inactive). Besides, the GI50 in experiment [7] was 1.52 µM (inactive); in experiment [8] it was > 100 µM (inactive); in [9] it was > 100 µM (inactive); in experiment [10] it was > 100 µM (inactive); in experiment [11] it was > 100 µM (inactive); in experiment [12] it was > 100 µM (inactive). For the same molecule, the GI50 in experiment [13], in experiment [14], in experiment [16], in experiment [17], in experiment [18] and in experiment [19] was > 100 µM (inactive) in each case. For the same molecule, the GI50 in [20] was > 100 µM (inactive).

For the molecule `COc1cccc2c3cccc(OC)c3c3[nH]cnc3c12`, the GI50 is 18.7 µM (inactive) in [1]; 8.81 µM (inactive) in experiment [2]; 1.73 µM (inactive) in experiment [3]; 1.63 µM (inactive) in experiment [4]; 3.88 µM (inactive) in experiment [5]; 1.94 µM (inactive) in experiment [6]. For the same molecule, the GI50 was 2.53 µM (inactive) in experiment [7]; 6.04 µM (inactive) in [8]; 1.98 µM (inactive) in experiment [9]; 1.84 µM (inactive) in experiment [10]; 1.65 µM (inactive) in experiment [11]; 1.64 µM (inactive) in experiment [12]. Also, the GI50 in [13] was 5.24 µM (inactive); in [14], 1.76 µM (inactive); in [15] it was 16.4 µM (inactive); in experiment [16], 6.24 µM (inactive); in experiment [17] it was 16.7 µM (inactive); in [19], 2.08 µM (inactive). Also, in experiment [20], the GI50 was 1.57 µM (inactive).

`Nc1ccn(C2CCC(CO)O2)c(=S)n1` (stereo not drawn): the GI50 in experiment [1], in experiment [2], in experiment [3], in experiment [4], in experiment [5] and in experiment [6] was > 100 µM (inactive) each time. Also, the GI50 in experiment [7] was 35.8 µM (inactive); in experiment [8] it was > 100 µM (inactive); in [9] it was > 100 µM (inactive); in [10], > 100 µM (inactive); in [11], > 100 µM (inactive); in [12], > 100 µM (inactive). Moreover, the GI50 in [14], in [15], in experiment [16], in experiment [17], in [18] and in experiment [19] was > 100 µM (inactive) each time. The GI50 in experiment [20] was > 100 µM (inactive).

Regarding `O=[N+]([O-])c1ccc2nc(=S)[nH]n2c1`, the GI50 in experiment [1], in experiment [2], in experiment [3], in experiment [4], in experiment [5] and in [6] was > 100 µM (inactive) in each case. Moreover, the GI50 in [7], in experiment [8], in experiment [9], in experiment [10], in [11] and in experiment [12] was > 100 µM (inactive) each time. The GI50 in experiment [14], in experiment [15], in experiment [16], in experiment [17], in experiment [18] and in [19] was > 100 µM (inactive) each time. In [20], the GI50 is > 100 µM (inactive).

Take `COc1ccc(-n2nnc3c(C#N)c(C)c(-c4ccccc4)n3c2=O)cc1`: the GI50 in [1] was 2.29 µM (inactive); in experiment [2] it was 7.38 µM (inactive); in experiment [4], 0.501 µM (active); in experiment [5], 3.95 µM (inactive); in experiment [6] it was 4.92 µM (inactive); in experiment [7], 1.99 µM (inactive). The GI50 was > 92.7 µM (inactive) in experiment [8]; 3.31 µM (inactive) in [9]; 3.34 µM (inactive) in [10]; > 43.2 µM (inactive) in experiment [11]; 4.42 µM (inactive) in experiment [12]; 2.4 µM (inactive) in experiment [13]. Also, the GI50 was 2.22 µM (inactive) in experiment [14]; 4.04 µM (inactive) in experiment [15]; 1.76 µM (inactive) in experiment [16]; 4.41 µM (inactive) in experiment [17]; 2.81 µM (inactive) in experiment [18]; 2.9 µM (inactive) in experiment [20].

Take `Clc1ccc(COC(Cn2ccnc2)c2ccc(Cl)cc2Cl)c(Cl)c1` (stereo not drawn) [MICONAZOLE]: the GI50 was 14.3 µM (inactive) in [1]; 15 µM (inactive) in experiment [2]; 12.1 µM (inactive) in experiment [3]; 5.12 µM (inactive) in experiment [4]; 14.9 µM (inactive) in [5]; 13.9 µM (inactive) in experiment [6]. The GI50 was 8.65 µM (inactive) in [7]; 11.4 µM (inactive) in [8]; 12.7 µM (inactive) in experiment [9]; 11 µM (inactive) in experiment [10]; 13.7 µM (inactive) in experiment [11]; 17.1 µM (inactive) in experiment [13]. Also, the GI50 in [15] is 13.5 µM (inactive); in experiment [16], 7.89 µM (inactive); in experiment [17], 11.5 µM (inactive); in experiment [19], 3.66 µM (inactive); in experiment [20], 9.64 µM (inactive).

For the molecule `CC1(C)[C@H]2CC[C@@]13C(=O)N1C(=O)O[C@@H]([C@H]1Cl)C(Cl)(COCc1ccccc1)C(=O)OCCO[C@H]3C2` (stereo partly drawn), the GI50 in experiment [1] is > 100 µM (inactive); in [2], 70.6 µM (inactive); in experiment [3] it was 66.8 µM (inactive); in [4], 37.8 µM (inactive); in experiment [5] it was 60.8 µM (inactive); in experiment [6], > 100 µM (inactive). For the same molecule, the GI50 was 28.2 µM (inactive) in experiment [7]; > 100 µM (inactive) in experiment [8]; 74 µM (inactive) in [9]; 40.9 µM (inactive) in experiment [10]; 35.6 µM (inactive) in experiment [12]; > 100 µM (inactive) in experiment [13]. In addition, the GI50 in experiment [14] is > 100 µM (inactive); in experiment [15], > 100 µM (inactive); in experiment [16], 43.1 µM (inactive); in experiment [17], 83.6 µM (inactive); in [18] it was 29.9 µM (inactive); in experiment [19], 24.3 µM (inactive). Besides, the GI50 in experiment [20] is 54.3 µM (inactive).

As to `S=C(Nc1ccccc1)N(Cc1ccccc1)c1ccccc1`, the GI50 in experiment [1] was > 100 µM (inactive); in experiment [2], 35 µM (inactive); in [3], 13.7 µM (inactive); in experiment [4], 40.1 µM (inactive); in experiment [5] it was 11.2 µM (inactive); in [7] it was 34.9 µM (inactive). For the same molecule, the GI50 is 29.9 µM (inactive) in experiment [8]; 33 µM (inactive) in [9]; > 100 µM (inactive) in [10]; 29.7 µM (inactive) in experiment [11]; 22.5 µM (inactive) in [12]; 17.4 µM (inactive) in experiment [13]. Further, the GI50 is 44.4 µM (inactive) in [14]; 49.3 µM (inactive) in experiment [15]; 56 µM (inactive) in [16]; 21.6 µM (inactive) in experiment [17]; 13.8 µM (inactive) in experiment [18]; 29.7 µM (inactive) in experiment [19]. Also, the GI50 in experiment [20] was 29.8 µM (inactive).
